ChEMBL document CHEMBL4811243, “Design, synthesis, and biological evaluation of a novel dual peroxisome proliferator-activated receptor alpha/delta agonist for the treatment of diabetic kidney disease through anti-inflammatory mechanisms” (Eur J Med Chem, 2021)

Assays:
[1] = molecular target: T1, Peroxisome proliferator-activated receptor gamma (Homo sapiens, UniProt P37231); experiment: Agonist activity at human Gal4 fused PPARgamma LBD expressed in COS-7 cells incubated for 24 hrs by firefly luciferase reporter gene assay; assay type: cell-based
T1 sequence (P37231 whole entry): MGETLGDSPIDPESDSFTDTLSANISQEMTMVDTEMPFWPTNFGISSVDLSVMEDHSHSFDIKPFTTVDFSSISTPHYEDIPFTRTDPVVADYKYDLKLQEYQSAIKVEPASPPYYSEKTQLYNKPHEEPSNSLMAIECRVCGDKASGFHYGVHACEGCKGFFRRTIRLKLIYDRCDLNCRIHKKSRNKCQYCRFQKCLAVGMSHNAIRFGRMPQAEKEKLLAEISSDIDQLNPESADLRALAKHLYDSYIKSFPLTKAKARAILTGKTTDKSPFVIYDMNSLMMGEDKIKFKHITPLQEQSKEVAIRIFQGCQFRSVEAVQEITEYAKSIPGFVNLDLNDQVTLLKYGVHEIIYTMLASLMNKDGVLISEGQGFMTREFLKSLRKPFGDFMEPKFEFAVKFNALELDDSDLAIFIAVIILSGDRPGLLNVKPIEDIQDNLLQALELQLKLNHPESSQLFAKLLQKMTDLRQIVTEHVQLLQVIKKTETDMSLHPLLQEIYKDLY

[2] = molecular target: T2, Peroxisome proliferator-activated receptor alpha (Homo sapiens, UniProt Q07869); experiment: Agonist activity at human Gal4 fused PPARalpha LBD expressed in COS-7 cells incubated for 24 hrs by firefly luciferase reporter gene assay; assay type: cell-based
T2 sequence (Q07869 whole entry): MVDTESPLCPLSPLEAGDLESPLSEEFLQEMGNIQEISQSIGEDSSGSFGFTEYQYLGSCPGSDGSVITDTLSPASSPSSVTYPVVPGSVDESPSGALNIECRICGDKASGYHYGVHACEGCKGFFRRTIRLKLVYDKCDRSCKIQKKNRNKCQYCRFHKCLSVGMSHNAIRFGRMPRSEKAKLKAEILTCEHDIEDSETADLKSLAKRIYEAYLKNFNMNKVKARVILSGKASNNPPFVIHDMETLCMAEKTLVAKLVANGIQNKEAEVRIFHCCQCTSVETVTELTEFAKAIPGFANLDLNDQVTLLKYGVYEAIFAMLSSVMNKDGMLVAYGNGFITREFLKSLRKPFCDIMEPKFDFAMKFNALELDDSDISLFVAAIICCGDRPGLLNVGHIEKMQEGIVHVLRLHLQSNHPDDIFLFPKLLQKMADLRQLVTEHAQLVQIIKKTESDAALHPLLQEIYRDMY

[3] = molecular target: T3, Peroxisome proliferator-activated receptor delta (Homo sapiens, UniProt Q03181); experiment: Agonist activity at human Gal4 fused PPARdelta LBD expressed in COS-7 cells incubated for 24 hrs by firefly luciferase reporter gene assay; assay type: cell-based
T3 sequence (Q03181 whole entry): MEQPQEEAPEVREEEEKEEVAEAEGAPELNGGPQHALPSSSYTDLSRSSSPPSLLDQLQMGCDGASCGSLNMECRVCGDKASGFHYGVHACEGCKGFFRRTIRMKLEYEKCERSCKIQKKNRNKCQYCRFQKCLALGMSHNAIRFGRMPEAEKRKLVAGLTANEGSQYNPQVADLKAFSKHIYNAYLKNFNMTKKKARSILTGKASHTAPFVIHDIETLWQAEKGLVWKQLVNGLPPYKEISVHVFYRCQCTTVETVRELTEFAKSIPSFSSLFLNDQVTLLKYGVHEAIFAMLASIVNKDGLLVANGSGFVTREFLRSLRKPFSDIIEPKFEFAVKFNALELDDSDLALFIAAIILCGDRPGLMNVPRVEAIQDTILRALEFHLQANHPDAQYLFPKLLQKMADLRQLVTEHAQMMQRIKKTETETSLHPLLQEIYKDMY

[4] = tested on: THP-1; experiment: Cytotoxicity against human THP-1 assessed as reduction in cell viability at 1 to 30 uM after 48 hrs by CCK-8 assay; assay type: cell-based; details: thp-1, 48 h, dose 1-30 µM
[5] = Hepatotoxicity in STZ-induced Sprague-Dawley rat diabetic kidney disease model assessed as serum AST level at 25 to 50 mg/kg, po administered twice a day for 6 weeks; assay type: toxicity, organism-based; details: in vivo, 1008 h, dose 25-50 mg/kg
[6] = Hepatotoxicity in STZ-induced Sprague-Dawley rat diabetic kidney disease model assessed as serum ALT level at 25 to 50 mg/kg, po administered twice a day for 6 weeks; assay type: toxicity, organism-based; details: in vivo, 1008 h, dose 25-50 mg/kg
[7] = Cytotoxicity against human GMCs assessed as reduction in cell viability at 1 to 30 uM after 48 hrs by CCK-8 assay; assay type: tissue-based; details: glomerular mesangial cell, dose 1-30 µM

| EC50 [1] | EC50 [2] | SMILES | other results |
| --- | --- | --- | --- |
| > 10 µM |  | Cc1cc(COc2ccc3c(c2)O/C(=C\c2ccc(C#N)cc2)C3=O)cc(C)c1OC(C)(C)C(=O)O |  |
| > 10 µM |  | Cc1ccc(/C=C2\Oc3cc(OCc4cc(C)c(OC(C)(C)C(=O)O)c(C)c4)ccc3C2=O)cc1 |  |
| > 10 µM |  | Cc1cc(COc2ccc3c(c2)O/C(=C\c2ccc(Br)cc2)C3=O)cc(C)c1OC(C)(C)C(=O)O |  |
| > 10 µM | > 10 µM | COc1ccc(/C=C2\Oc3cc(OCc4cc(C)c(OC(C)(C)C(=O)O)c(C)c4)ccc3C2=O)cc1 |  |
| > 10 µM | > 10 µM | Cc1cc(COc2ccc3c(c2)O/C(=C\c2ccc(F)cc2)C3=O)cc(C)c1OC(C)(C)C(=O)O | EC50 [3]: > 10 µM |
| > 10 µM |  | Cc1cc(COc2ccc3c(c2)O/C(=C\c2ccc(Cl)cc2)C3=O)cc(C)c1OC(C)(C)C(=O)O |  |

Second part, the molecule before the results:

| SMILES | EC50 [1] | EC50 [2] | other results |
| --- | --- | --- | --- |
| CCOc1ccc(/C=C2\Oc3cc(OCc4cc(C)c(OC(C)(C)C(=O)O)c(C)c4)ccc3C2=O)cc1 | > 10 µM | > 10 µM |  |
| Cc1cc(COc2ccc3c(c2)O/C(=C\c2ccccc2C(F)(F)F)C3=O)cc(C)c1OC(C)(C)C(=O)O | > 10 µM |  |  |
| Cc1cc(COc2ccc3c(c2)O/C(=C\c2ccccc2)C3=O)cc(C)c1OC(C)(C)C(=O)O | > 10 µM |  |  |
| Cc1cc(COc2ccc3c(c2)O/C(=C\c2ccc(C(C)C)cc2)C3=O)cc(C)c1OC(C)(C)C(=O)O | > 10 µM |  |  |
| Cc1cc(COc2ccc3c(c2)O/C(=C\c2ccc4ccccc4c2)C3=O)cc(C)c1OC(C)(C)C(=O)O | > 10 µM |  |  |
| Cc1cc(COc2ccc3c(c2)O/C(=C\c2ccc(C(F)(F)F)cc2)C3=O)cc(C)c1OC(C)(C)C(=O)O |  |  | Activity [4]: Non-Toxic; Activity [5]: Non-Toxic; Activity [6]: Non-Toxic; Activity [7]: Non-Toxic |
| CSc1ccc(C(=O)/C=C/c2cc(C)c(OC(C)(C)C(=O)O)c(C)c2)cc1 [ELAFIBRANOR] | 2.79 µM | 0.76 µM |  |
